Key:
[1] = organism: Rattus norvegicus; assay: Intrinsic vasorelaxant activity tested in rat aorta; assay type: functional
[2] = organism: Rattus norvegicus; assay: Negative logarithm of the molar concentration required to relax rat aorta precontracted with 30 mM KCI by 50% of IA; assay type: functional, organism-based

SMILES	Intrinsic activity [1]	EC50 [2]
CC1(C)Oc2ccc(C#N)cc2[C@@H](N2CCCC2=O)[C@@H]1O [CROMAKALIM]	74.7%	–
CC1(C(F)(F)F)C=C(/C(S)=N\CCC#N)c2cc([N+](=O)[O-])ccc2O1 (configuration not stated)	69.7%	0.363 nM
C/N=C(/S)C1=CC(C(F)(F)F)(C(F)(F)F)Oc2ccc([N+](=O)[O-])cc21	68%	0.631 nM
N#CCC/N=C(\S)C1=CC(CF)(CF)Oc2ccc([N+](=O)[O-])cc21	72.5%	0.141 nM
CNC(=O)C1=CC(C(F)(F)F)(C(F)(F)F)Oc2ccc([N+](=O)[O-])cc21	57.9%	1.48 nM
N#CCC/N=C(/S)C1=CC(C(F)(F)F)(C(F)(F)F)Oc2ccc([N+](=O)[O-])cc21	74.8%	0.437 nM
C/N=C(/S)C1=CC2(CCC2)Oc2ccc([N+](=O)[O-])cc21	–	0.0251 nM
CNC(=O)C1=CC(CF)(CF)Oc2ccc([N+](=O)[O-])cc21	70.7%	5.13 nM
C/N=C(/S)C1=CC(C)(CF)Oc2ccc([N+](=O)[O-])cc21 (configuration not stated)	77.1%	1.62 nM
CNC(=O)C1=CC(C)(CF)Oc2ccc([N+](=O)[O-])cc21 (configuration not stated)	66%	8.91 nM
CNC(=O)C1=CC(C)(C)Oc2ccc([N+](=O)[O-])cc21	61%	–
CC1(CF)C=C(/C(S)=N\CCC#N)c2cc([N+](=O)[O-])ccc2O1 (configuration not stated)	59.6%	1.86 nM
C/N=C(/S)C1=CC(C)(C(F)(F)F)Oc2ccc([N+](=O)[O-])cc21 (configuration not stated)	62.5%	0.302 nM
CC1(C)C=C(C(=O)NCCC#N)c2cc([N+](=O)[O-])ccc2O1	73.1%	2.82 nM
CC1(C(F)(F)F)C=C(C(=O)NCCC#N)c2cc([N+](=O)[O-])ccc2O1 (configuration not stated)	70.6%	0.692 nM
C/N=C(/S)C1=CC2(CCCC2)Oc2ccc([N+](=O)[O-])cc21	–	0.0209 nM
C/N=C(/S)C1=CC(C)(C)Oc2ccc([N+](=O)[O-])cc21	63.5%	–
N#CCCNC(=O)C1=CC(CF)(CF)Oc2ccc([N+](=O)[O-])cc21	72.3%	2.24 nM
C/N=C(/S)C1=CC(CF)(CF)Oc2ccc([N+](=O)[O-])cc21	74.5%	0.479 nM
CC(N/C(=N\C#N)Nc1ccncc1)C(C)(C)C (configuration not stated) [PINACIDIL ANHYDROUS]	91.9%	–
CC1(CF)C=C(C(=O)NCCC#N)c2cc([N+](=O)[O-])ccc2O1 (configuration not stated)	71%	3.98 nM
N#CCCNC(=O)C1=CC(C(F)(F)F)(C(F)(F)F)Oc2ccc([N+](=O)[O-])cc21	64.1%	0.49 nM
CNC(=O)C1=CC(C)(C(F)(F)F)Oc2ccc([N+](=O)[O-])cc21 (configuration not stated)	61.7%	2.69 nM
CC1(C)C=C(/C(S)=N\CCC#N)c2cc([N+](=O)[O-])ccc2O1	78.5%	0.372 nM
